Here are results for three molecules from ChEMBL document CHEMBL1129469, “Nonpeptide angiotensin II receptor antagonists: the next generation in antihypertensive therapy” (J Med Chem, 1996).

The species named for data set [1] is Oryctolagus cuniculus. The data set can be described thus: (§1) Compound was tested for its antagonistic activity against angiotensin II-induced contractions in rabbit aorta. It counts as functional, organism-based.
The next data set deals with HASMC. Briefly: Inhibitory activity against Ang II-induced proliferation of human aortic smooth muscle cells in a dose-dependent manner. It counts as functional, cell-based.
The test system of data set [2] is Rattus norvegicus. Briefly: Oral effective dose required for inhibition of Ang II pressor response in conscious rat. It counts as functional.
The test system of data set [3] is Rattus norvegicus. The data set can be described thus: Intravenous effective dose required for inhibition of Ang II pressor response in conscious rat. The class given is functional.
Data set [4] in a line: Oral bioavailability was evaluated in rhesus monkey. The following applies: in vivo. The class given is ADME, organism-based, Macaca mulatta.
Data set [5] in a line: Oral bioavailability in rat. It counts as ADME, organism-based. The following applies: in vivo.
The species entered for data set [6] is Oryctolagus cuniculus. The description is as §1. The class given is functional.
The species named for data set [7] is Rattus norvegicus. Briefly: pA2 value was evaluated against angiotensin II-induced aldosterone release in rat adrenal cortical cells. It counts as functional, cell-based. The following applies: read-out: pA2 (converted).
The nature of data set [8]: Oral bioavailability was evaluated in rat by oral administration. The following applies: in vivo. It counts as ADME, organism-based.
For data set [9], the system named is Rattus norvegicus. Briefly: Dose dependent inhibition of pressor responses to Ang-II receptor in conscious normotensive rat by intraduodenal administration. The following applies: read-out: ID50 (the source's name). The class given is functional.
For data set [10], the system named is Rattus norvegicus. The data set can be described thus: Dose dependent inhibition of pressor responses to Ang-II in conscious normotensive rat by bolus intravenous administration. The class given is functional. The note with it: read-out: ID50 (the source's name).

Take `CCCCC1=NC2(CCCC2)C(=O)N1Cc1ccc(-c2ccccc2-c2nnn[nH]2)cc1` [IRBESARTAN]: the figures for the IC50 in the data set filed under Oryctolagus cuniculus [1] and with HASMC were 4 nM and 320 nM, respectively.

Turning to `CCc1nc2c(C)cc(C)nc2n1Cc1ccc(-c2ccccc2-c2nn[nH]n2)cc1` [L-158809], the ED50 amounted to 0.023 mg/kg in the data set on Rattus norvegicus [2] and 0.029 mg/kg in the data set with Rattus norvegicus [3]. Further, the bioavailability in data set [4] was 32%; in data set [5], 100%; in data set [8], 70%. The Kb in the data set listed under Oryctolagus cuniculus [6] was 0.28 nM; in the data set filed under Rattus norvegicus [7] it was 0.0316 nM. Further, the pKB in the data set listed under Oryctolagus cuniculus [6] came to 9.3.

With `CCCCc1ncc(/C=C(\Cc2cccs2)C(=O)O)n1Cc1ccc(C(=O)O)cc1` [EPROSARTAN], the results for the ED50 with Rattus norvegicus [9] and with Rattus norvegicus [10] were 5.5 mg/kg and 0.08 mg/kg, respectively.

By IC50 is commonly meant the concentration needed to halve the response being measured. In general, bioavailability refers to dose-corrected exposure relative to a reference, in per cent. Broadly, the pKB is the KB on a negative log10 scale, so that one unit is a factor of ten.
